Data taken from article PMC8012331, “Drug-induced hepatic steatosis in absence of severe mitochondrial dysfunction in HepaRG cells: proof of multiple mechanism-based toxicity” (Cell Biology and Toxicology, 2020).
Several values for one entry are separate records, joined by “and”; a condition that tells them apart may be missing. Identical values can stand only once. Entries after “also recorded” stand apart in the source; their conditions may differ. Like-named read-outs stand apart in the source and are kept apart here.

Legend:
[1] = tested on: fatty acid translocase (FAT, also known as CD36); test: RT-qPCR FAT/CD36 mRNA in HepaRG cells; assay type: cell-based, human; conditions: 4 days, vs control
Experimental: Total RNA was extracted with the Nucleospin RNA isolation system purchased from Macherey-Nagel (Düren, Germany), which included a DNase treatment step. Quantification of isolated RNAs was assessed using a Nanodrop 1000 (Thermo Fisher Scientific, Waltham, MA). RNAs were reverse-transcribed into cDNAs using the High-Capacity cDNA Reverse Transcription Kit purchased from Applied Biosystems (Woolston, UK). Gene expression was assessed by real-time quantitative PCR analysis (RT-qPCR) using SYBR Green PCR Master Mix (Applied Biosystems) and a 384-well QuantStudio™ 7 Flex Real-Time PCR System (Thermo Fisher Scientific). Sequences of the primers used to measure gene expression are presented in Supplementary Table 3. Expression of GAPDH was chosen as reference and the 2^−ΔΔCt calculation method was used to express the relative expression of each selected gene.

[2] = tested on: de novo lipogenesis (DNL); test: DNL from [2-14C]acetic acid in HepaRG cells; assay type: cell-based, human; conditions: 4 days, vs control
[3] = Maximum plasma concentration (Cmax) in patients; assay type: in vivo, human; conditions: worked out from cited Cmax in patients
apoC3 secretion = test: apoC3 level in culture medium (HTRF), HepaRG cells; assay type: cell-based, human; conditions: 4 days, culture medium, vs control
Experimental: Briefly, HepaRG cells were seeded in 96-well plates at a density of 2.6 × 10^4 cells/cm^2 and were first incubated in William’s E medium supplemented with 10% FBS (50% FBS from Eurobio and 50% FBS from GE Healthcare), 100 U/mL penicillin, 100 μg/mL streptomycin, 2 mM glutamine, 5 μg/mL insulin, and 50 μM hydrocortisone hemisuccinate. […] During this 1-month period, the culture medium was renewed three times a week. […] HepaRG cells were next cultured in the same FBS/DMSO conditions and incubated for 4 days with each drug at different concentrations. Culture medium was renewed every day and all investigations were performed after 96 h (i.e., 24 h after the fourth treatment). These investigations were mostly performed in 96-well plates except for western blot analysis, for which 6-well plates were used. Experiments were carried out on passages 9 to 16. All drugs (except DPEN), etomoxir, lomitapide, tunicamycin, thapsigargin, and TUDCA were dissolved in DMSO. DPEN was dissolved in water.
Apolipoprotein C3 (apoC3) level was measured using the Human Apolipoprotein C3 kit from Cisbio Bioassays (Codolet, France), according to the manufacturer’s instructions. Briefly, 10 μL of supernatants was incubated with two different specific anti-human apoC3 antibodies, one donor and one acceptor. The detection principle of apoC3 is based on HTRF® (Homogeneous Time Resolved Fluorescence), a time-resolved FRET (Förster Resonance Energy Transfer) technology. After 2 h of incubation, light emission was measured with the Infinite F Nano+ microplate reader (Tecan, Männedorf, Switzerland). ApoC3 level was calculated utilizing standard curve, based on the ratio of A665 nm/A615 nm, and normalized to the total cellular protein content. Results were expressed in comparison to control cells.

IRE1α = test: Western blot total IRE1α in HepaRG cells; assay type: cell-based, human
Experimental: (§1) Cells were lysed in ice-cold CelLytic M buffer (C2978; Sigma Aldrich) containing phosphatase and protease inhibitors from Roche Applied Science (Penzberg, Germany). Protein concentration was determined using the Pierce BCA Protein Assay Kit (Thermo Fisher Scientific) and equal amounts of protein were diluted with NuPAGE LDS Sample Buffer (Thermo Fisher Scientific). Samples (ca. 25 μg of proteins) were then separated by SDS-PAGE using NuPAGE 4–12% Bis-Tris gels (Thermo Fisher Scientific). Proteins were transferred to PVDF membranes (BioRad) and Ponceau S staining was used to confirm equal loading and transfer. Membranes were blocked in 7.5% milk in TBST (10 mM Tris–HCl, 100 mM NaCl, 0.02% Tween 20) for 1 h at room temperature and incubated overnight at 4 °C with antibodies against phospho-IRE1α (Ser724) (Abcam, ab124945), IRE1α (Cell Signaling, 3294), or HSC70 (Santa Cruz, sc-7298), whose dilutions were 1:1000. […] Protein content was quantified by densitometry with ImageJ software (National Institutes of Health, Bethesda, MD).

[4] = patients, ref given per drug, cited from earlier work; for Cmax: read-out: Maximum plasma concentration (Cmax) in patients
[5] = tested on: mitochondrial fatty acid oxidation (mtFAO); test: mtFAO with [U-14C]palmitic acid in HepaRG cells; assay type: cell-based, human; conditions: 4 days, vs control
Experimental: Experiments were carried out on passages 9 to 16. […] DPEN was dissolved in water.
Results were normalized to total protein content determined using the Pierce BCA assay kit from Thermo Fischer Scientific (Waltham, MA). Results were expressed in comparison to control cells.

[6] = treated patients, ref Schulz M et al., Crit Care 2012 ;16(4):R136, cited from earlier work
phospho-IRE1α (Ser724) = test: Western blot phospho-IRE1α in HepaRG cells; assay type: cell-based, human
Experimental: as §1

SMILES | FAT/CD36 mRNA level [1] | Effect on DNL [2] | Concentration corresponding to 100xCmax [3] | Effect on apoC3 secretion (apoC3 secretion) | Protein level of total IRE1α (IRE1α) | Maximum plasma concentration (Cmax) in patients [4] | Cmax [4] | Effect on mtFAO [5] | Therapeutic blood (or plasma) concentration in patients ([6]; listed as Indomethacin (INDO)) | Protein level of phospho-IRE1α (pIRE1α) (phospho-IRE1α (Ser724)) | Therapeutic blood (or plasma) concentration in patients ([6]; listed as Rifampicin (RIF))
COc1ccc2c(c1)c(CC(=O)O)c(C)n2C(=O)c1ccc(Cl)cc1 [INDO, indomethacin] | significantly augmented | increased DNL | 2200 µM | reduced the secretion | increased protein level | ≤ 8000 ng/mL | ≤ 22 µM | inhibited this metabolic pathway and mild | 0.3 - 1 mg/L and 0.83 - 2.8 µM | increased protein level | 
CO[C@H]1/C=C/O[C@@]2(C)Oc3c(C)c(O)c4c(O)c(c(/C=N/N5CCN(C)CC5)c(O)c4c3C2=O)NC(=O)/C(C)=C\C=C\[C@H](C)[C@H](O)[C@@H](C)[C@@H](O)[C@@H](C)[C@H](OC(C)=O)[C@@H]1C [RIF, rifampicin] | this effect was not observed | curb this metabolic pathway | 1900 µM | reduced the secretion | increased protein level | ≤ 15600 ng/mL | ≤ 19 µM | inhibited this metabolic pathway; also recorded: moderate |  | increased protein level | 0.1 - 10 mg/L and 0.12 - 12.2 µM
